This is an account of results in ChEMBL document CHEMBL4411303, “Synthesis of tetrazole derivatives bearing pyrrolidine scaffold and evaluation of their antifungal activity against Candida albicans” (Eur J Med Chem, 2019).

As usually defined, the pIC50 is −log10 of the IC50, conventionally taken in molar units.

The structures appear in SMILES notation. pIC50: −log10 of the molar value.

Test [1] concerns Candida albicans. Nature of the test: Antifungal activity against Candida albicans ATCC 90028 assessed as planktonic growth inhibition at 10.95 uM after 48 hrs by M27-A3 protocol based method relative to control. The settings on record: ATCC 90028, 48 h, read-out: GI. The test is classed as functional.
The subject of test [2] is Candida albicans. The test can be described thus: Antifungal activity against Candida albicans ATCC 90028 assessed as planktonic growth inhibition at 0.17 uM after 48 hrs by M27-A3 protocol based method relative to control. The test is classed as functional. The settings on record: ATCC 90028, 48 h, read-out: GI.
The test system of test [3] is Candida albicans. Nature of the test: Antifungal activity against Candida albicans ATCC 90028 assessed as planktonic growth inhibition at 1.37 uM after 48 hrs by M27-A3 protocol based method relative to control. The test is classed as functional. The settings on record: ATCC 90028, 48 h, read-out: GI.
The subject of test [4] is Candida albicans. Nature of the test: Antifungal activity against Candida albicans ATCC 90028 assessed as planktonic growth inhibition at 2.74 uM after 48 hrs by M27-A3 protocol based method relative to control. The test is classed as functional. The settings on record: ATCC 90028, 48 h, read-out: GI.
The test system of test [5] is Candida albicans. The test can be described thus: Antifungal activity against Candida albicans ATCC 90028 assessed as planktonic growth inhibition at 0.34 uM after 48 hrs by M27-A3 protocol based method relative to control. The test is classed as functional. The settings on record: ATCC 90028, 48 h, read-out: GI.
For test [6], the system named is Candida albicans. Nature of the test: Antifungal activity against Candida albicans ATCC 90028 assessed as planktonic growth inhibition at 5.47 uM after 48 hrs by M27-A3 protocol based method relative to control. The test is classed as functional. The settings on record: ATCC 90028, 48 h, read-out: GI.
The subject of test [7] is Candida albicans. The test can be described thus: Antifungal activity against Candida albicans ATCC 90028 assessed as planktonic growth inhibition at 0.68 uM after 48 hrs by M27-A3 protocol based method relative to control. The settings on record: ATCC 90028, 48 h, read-out: GI. The test is classed as functional.
For test [8], the system named is Candida albicans. The test can be described thus: Antifungal activity against Candida albicans ATCC 90028 assessed as planktonic growth inhibition at 21.89 uM after 48 hrs by M27-A3 protocol based method relative to control. The test is classed as functional. The settings on record: ATCC 90028, 48 h, read-out: GI.
Test [9] relates to Candida albicans. The test can be described thus: Antifungal activity against Candida albicans ATCC 90028 assessed as planktonic growth inhibition at 0.09 uM after 48 hrs by M27-A3 protocol based method relative to control. The test is classed as functional. The settings on record: ATCC 90028, 48 h, read-out: GI.
Test [10] concerns Candida albicans. The test can be described thus: Fungicidal activity against Candida albicans ATCC 90028 assessed as log reduction in fungal load incubated for 48 hrs followed by replating on sabouraud dextrose agar plate and measured after 48 hrs. The test is classed as functional.
Test [11] relates to Candida albicans. Nature of the test: Antifungal activity against Candida albicans ATCC 90028 assessed as planktonic growth inhibition at 43.78 uM after 48 hrs by M27-A3 protocol based method relative to control. The test is classed as functional. The settings on record: ATCC 90028, 48 h, read-out: GI.
Test [12] deals with Candida albicans. The test can be described thus: Antifungal activity against Candida albicans ATCC 90028 assessed as planktonic growth inhibition at 0.27 uM after 48 hrs by M27-A3 protocol based method relative to control. The settings on record: ATCC 90028, 48 h, read-out: GI. The test is classed as functional.
The subject of test [13] is Candida albicans. Nature of the test: Antibiofilm activity against Candida albicans ATCC 90028 assessed as inhibition of biofilm formation […] after 24 hrs by XTT assay relative to control. The test is classed as functional, organism-based. The settings on record: ATCC 90028, 24 h. A general note: Tetrazolium dyes change colour on reduction, which living cells bring about.

Test [14] has as its system Candida albicans. Nature of the test: Antifungal activity against Candida albicans ATCC 90028 assessed as planktonic growth inhibition at 11.07 uM after 48 hrs by M27-A3 protocol based method relative to control. The test is classed as functional. The settings on record: ATCC 90028, 48 h, read-out: GI.
Test [15] has as its system Candida albicans. Nature of the test: Antifungal activity against Candida albicans ATCC 90028 assessed as planktonic growth inhibition at 5.53 uM after 48 hrs by M27-A3 protocol based method relative to control. The test is classed as functional. The settings on record: ATCC 90028, 48 h, read-out: GI.
The subject of test [16] is Candida albicans. Nature of the test: Antifungal activity against Candida albicans ATCC 90028 assessed as planktonic growth inhibition at 44.26 uM after 48 hrs by M27-A3 protocol based method relative to control. The settings on record: ATCC 90028, 48 h, read-out: GI. The test is classed as functional.
Test [17] concerns Candida albicans. The test can be described thus: Antifungal activity against Candida albicans ATCC 90028 assessed as planktonic growth inhibition at 0.69 uM after 48 hrs by M27-A3 protocol based method relative to control. The settings on record: ATCC 90028, 48 h, read-out: GI. The test is classed as functional.
For test [18], the system named is Candida albicans. The test can be described thus: Antifungal activity against Candida albicans ATCC 90028 assessed as planktonic growth inhibition at 1.38 uM after 48 hrs by M27-A3 protocol based method relative to control. The settings on record: ATCC 90028, 48 h, read-out: GI. The test is classed as functional.
Test [19] relates to Candida albicans. The test can be described thus: Antifungal activity against Candida albicans ATCC 90028 assessed as planktonic growth inhibition at 2.77 uM after 48 hrs by M27-A3 protocol based method relative to control. The test is classed as functional. The settings on record: ATCC 90028, 48 h, read-out: GI.
The subject of test [20] is Candida albicans. The test can be described thus: Antifungal activity against Candida albicans ATCC 90028 assessed as planktonic growth inhibition at 0.35 uM after 48 hrs by M27-A3 protocol based method relative to control. The test is classed as functional. The settings on record: ATCC 90028, 48 h, read-out: GI.
In test [21] the test system is Candida albicans. Nature of the test: Antifungal activity against Candida albicans ATCC 90028 assessed as planktonic growth inhibition at 22.13 uM after 48 hrs by M27-A3 protocol based method relative to control. The test is classed as functional. The settings on record: ATCC 90028, 48 h, read-out: GI.
Test [22] relates to Candida albicans. Nature of the test: Antifungal activity against Candida albicans ATCC 90028 assessed as planktonic growth inhibition at 39.77 uM after 48 hrs by M27-A3 protocol based method relative to control. The settings on record: ATCC 90028, 48 h, read-out: GI. The test is classed as functional.
Test [23] has as its system Candida albicans. The test can be described thus: Antifungal activity against Candida albicans ATCC 90028 assessed as planktonic growth inhibition at 0.16 uM after 48 hrs by M27-A3 protocol based method relative to control. The test is classed as functional. The settings on record: ATCC 90028, 48 h, read-out: GI.
The subject of test [24] is Candida albicans. The test can be described thus: Antifungal activity against Candida albicans ATCC 90028 assessed as planktonic growth inhibition at 19.88 uM after 48 hrs by M27-A3 protocol based method relative to control. The test is classed as functional. The settings on record: ATCC 90028, 48 h, read-out: GI.
Test [25] deals with Candida albicans. Nature of the test: Antifungal activity against Candida albicans ATCC 90028 assessed as planktonic growth inhibition at 0.62 uM after 48 hrs by M27-A3 protocol based method relative to control. The test is classed as functional. The settings on record: ATCC 90028, 48 h, read-out: GI.
Test [26] relates to Candida albicans. Nature of the test: Antifungal activity against Candida albicans ATCC 90028 assessed as planktonic growth inhibition at 2.49 uM after 48 hrs by M27-A3 protocol based method relative to control. The test is classed as functional. The settings on record: ATCC 90028, 48 h, read-out: GI.
Test [27] concerns Candida albicans. The test can be described thus: Antifungal activity against Candida albicans ATCC 90028 assessed as planktonic growth inhibition at 1.24 uM after 48 hrs by M27-A3 protocol based method relative to control. The test is classed as functional. The settings on record: ATCC 90028, 48 h, read-out: GI.
For test [28], the system named is Candida albicans. Nature of the test: Antifungal activity against Candida albicans ATCC 90028 assessed as planktonic growth inhibition at 0.08 uM after 48 hrs by M27-A3 protocol based method relative to control. The test is classed as functional. The settings on record: ATCC 90028, 48 h, read-out: GI.
Test [29] has as its system Candida albicans. The test can be described thus: Antifungal activity against Candida albicans ATCC 90028 assessed as planktonic growth inhibition at 9.94 uM after 48 hrs by M27-A3 protocol based method relative to control. The test is classed as functional. The settings on record: ATCC 90028, 48 h, read-out: GI.
In test [30] the test system is Candida albicans. Nature of the test: Antifungal activity against Candida albicans ATCC 90028 assessed as planktonic growth inhibition at 0.31 uM after 48 hrs by M27-A3 protocol based method relative to control. The test is classed as functional. The settings on record: ATCC 90028, 48 h, read-out: GI.
Test [31] has as its system Candida albicans. Nature of the test: Antifungal activity against Candida albicans ATCC 90028 assessed as planktonic growth inhibition at 4.97 uM after 48 hrs by M27-A3 protocol based method relative to control. The test is classed as functional. The settings on record: ATCC 90028, 48 h, read-out: GI.

For the molecule `Cc1ccc(-c2nnn(CCCN3CCCC3c3ccc(F)cc3)n2)cc1` (stereo not given), the inhibition of growth at 10.95 µM in test [1] was 99.4%. Also, in test [2], the inhibition of growth at 0.17 µM came out at 99.1%. In addition, the inhibition of growth at 1.37 µM in test [3] came to 99.2%. In test [4], the inhibition of growth at 2.74 µM stood at 99.2%. Further, the inhibition of growth at 0.34 µM in test [5] was 99.2%. Besides, in [6], the inhibition of growth at 5.47 µM was 99%. For the same molecule, the inhibition of growth at 0.68 µM in [7] stood at 99.1%. Moreover, the inhibition of growth at 21.89 µM in test [8] came to 98.7%. In addition, in test [9], the inhibition of growth at 0.09 µM is 99.1%. For the same molecule, the “log(activity)” value in [10] is -0.3. Besides, the inhibition of growth at 43.78 µM in test [11] turned out to be 98.9%.
For `C[C@@H]1[C@H](O)[C@@H](C)/C=C/C=C/C=C/C=C/C=C/C=C/C=C/[C@H](O[C@@H]2O[C@H](C)[C@@H](O)[C@H](N)[C@@H]2O)C[C@@H]2O[C@](O)(C[C@@H](O)C[C@@H](O)[C@H](O)CC[C@@H](O)C[C@@H](O)CC(=O)O[C@H]1C)C[C@H](O)[C@H]2C(=O)O` [AMPHOTERICIN B], the inhibition of growth at 0.27 µM in test [12] came out at 100%. The pIC50 in [13] was 4.00.
`Cc1ccc(-c2nnn(CCCN3CCCC3c3ccc(C)cc3)n2)cc1` (stereo not given): the inhibition of growth at 11.07 µM in test [14] turned out to be 98.9%. For the same molecule, in [15], the inhibition of growth at 5.53 µM turned out to be 99.3%. Besides, in [16], the inhibition of growth at 44.26 µM came out at 99.6%. The inhibition of growth at 0.69 µM in test [17] stood at 99.2%. In [2], the inhibition of growth at 0.17 µM was 99.3%. Besides, the inhibition of growth at 1.38 µM in [18] was 99%. Besides, in [19], the inhibition of growth at 2.77 µM is 99%. For the same molecule, in test [20], the inhibition of growth at 0.35 µM is 99.1%. For the same molecule, the inhibition of growth at 0.09 µM in test [9] was determined as 99%. Also, in test [10], the “log(activity)” value was -0.6. The inhibition of growth at 22.13 µM in test [21] amounted to 99.3%.
For `Clc1ccc(C2CCCN2CCCn2nnc(-c3ccccc3Cl)n2)cc1` (stereo not given), in test [22], the inhibition of growth at 39.77 µM stood at 99.6%. The inhibition of growth at 0.16 µM in test [23] is 98.9%. Moreover, the inhibition of growth at 19.88 µM in test [24] is 99.5%. The inhibition of growth at 0.62 µM in test [25] was 99.2%. In test [26], the inhibition of growth at 2.49 µM turned out to be 99.3%. In addition, in [27], the inhibition of growth at 1.24 µM was found to be 99.2%. Also, in test [28], the inhibition of growth at 0.08 µM was 98.8%. Moreover, the inhibition of growth at 9.94 µM in test [29] stood at 99.4%. In addition, the “log(activity)” value in [10] is recorded as -0.4. Also, the inhibition of growth at 0.31 µM in [30] amounted to 99%. In addition, the inhibition of growth at 4.97 µM in test [31] worked out at 99.3%.
